The values that follow are results of earlier work, collected in publication PMC5409479 (The Journal of Biological Chemistry, 2017).

In data set [1] the test system is GLP-1R.
In data set [2] the test system is GCGR, mutation of Trp-36 to Ala. As to conditions: GCGR Trp-36 to Ala; significantly increased expression. From the text: (§1) This could also move residues Thr-35, Trp-39, Tyr-88, Leu-89, Pro-90, and Trp-91 away from the peptide interface observed in the crystal structure, while bringing Trp-33 and Arg-40 into closer proxim ...
Data set [3] deals with GLP-1R L89A. The arrangement: method as in PMID 19861722.
The test system of data set [4] is GLP-1R, mutation of Glu-125 to Ala. The arrangement: method as in PMID 19815559, PMID 21868452, PMID 20529866.
The subject of data set [5] is GLP-1R, mutation of Arg-40 to Ala.
From the text: as §1

Data set [6] concerns GLP-1R, mutation of Trp-39 to Ala or Phe. As to conditions: expression comparable with wild type.
From the text: as §1

As for exendin(9–39), the “affinity and agonism (in words)” value in data set [1] is recorded as “a high affinity antagonist”.

Turning to GLP-1(7–36)NH2: a high affinity agonist, the “affinity and agonism (in words)” value in data set [1] was “a high affinity agonist”.

GLP-1(9–36)NH2: the “affinity and agonism (in words)” value in data set [1] is reported as “a low affinity partial agonist”.

As to GCG: glucagon, the “GCG binding (in words)” value in data set [2] was “no detectable binding of GCG”.

In the case of GLP-1: cognate ligand of GLP-1R, the “GLP-1 peptide binding (in words)” value in data set [3] is on record as “abolishing GLP-1 peptide binding”. In addition, the “GLP-1 binding affinity or function (in words)” value in data set [4] is reported as “did not significantly impact GLP-1 binding affinity or function”. In addition, in data set [5], the “binding affinity of GLP-1 (in words)” value is given as “small decrease in binding affinity of GLP-1”. For the same substance, the “GLP-1 binding (in words)” value in data set [6] is “loss of detectable GLP-1 binding”.
